Measurements: ChEMBL document CHEMBL3044647, “Tests for Evaluating the Side Effects of Chlorothalonil (TPN) and Spinosad on the Parasitic Wasp (Aphidius colemani)” (J Pestic Sci, 2005)

Key:
[1] = Toxicity against Aphidius colemani in kidney bean leaf assessed as mortality at 0.8 mg/l treated as spraying after 48 hr relative to control; format: organism-based; settings: in vivo, other: spraying
[2] = Toxicity against Aphidius colemani in kidney bean leaf assessed as mortality at 1 mg/l treated as spraying after 24 hr relative to control; format: organism-based; settings: in vivo
[3] = test system: Aphidius colemani; assay: Drug uptake in Aphidius colemani at 100 mg/l treated as spraying; format: ADME, organism-based; settings: in vivo, topical_or_ocular
[4] = Toxicity against Aphidius colemani in kidney bean leaf assessed as mortality at 0.8 mg/l treated as spraying after 24 hr relative to control; format: organism-based; settings: in vivo
[5] = Residual toxicity against Aphidius colemani in strawberry leaf assessed as mortality at 50 mg/l leaves collected after 40 days of application measured after 48 hr relative to control; format: organism-based; settings: in vivo
[6] = Residual toxicity against Aphidius colemani in strawberry leaf assessed as mortality at 50 mg/l leaves collected after 10 days of application measured after 24 hr relative to control; format: organism-based; settings: in vivo
[7] = test system: Leaf; assay: Drug level in Phaseolus vulgaris (kidney bean) leaf assessed as deposition in leaf at 83.3 mg/l; format: ADME
[8] = Drug level in Fragaria x ananassa (strawberry) leaf at 50 mg/l leaves after 5 days; format: ADME; settings: read-out: Drug uptake
[9] = test system: Leaf; assay: Drug level in Cucumis sativus (cucumber) leaf assessed as deposition in leaf at 10 mg/l; format: ADME
[10] = Toxicity against Aphidius colemani in cucumber leaf assessed as mortality at 10 mg/l treated as spraying after 24 hr relative to control; format: organism-based; settings: in vivo, other: spraying
[11] = Toxicity against Aphidius colemani in kidney bean leaf assessed as mortality at 100 mg/l treated as spraying after 24 hr relative to control; format: organism-based; settings: in vivo
[12] = Residual toxicity against Aphidius colemani in strawberry leaf assessed as mortality at 50 mg/l leaves collected after 30 days of application measured after 48 hr relative to control; format: organism-based; settings: in vivo
[13] = Residual toxicity against Aphidius colemani in strawberry leaf assessed as mortality at 50 mg/l leaves collected after 20 days of application measured after 24 hr relative to control; format: organism-based; settings: in vivo
[14] = test system: Leaf; assay: Drug level in Phaseolus vulgaris (kidney bean) leaf assessed as deposition in leaf at 100 mg/l; format: ADME
[15] = Toxicity against Aphidius colemani in strawberry leaf assessed as mortality at 5 mg/l treated as spraying after 48 hr relative to control; format: organism-based; settings: in vivo
[16] = Toxicity against Aphidius colemani in strawberry leaf assessed as mortality at 100 mg/l treated as spraying after 48 hr relative to control; format: organism-based; settings: in vivo
[17] = Toxicity against Aphidius colemani in kidney bean leaf assessed as mortality at 1 mg/l treated as spraying after 48 hr relative to control; format: organism-based; settings: in vivo
[18] = Residual toxicity against Aphidius colemani in strawberry leaf assessed as mortality at 50 mg/l leaves collected after 5 days of application measured after 24 hr relative to control; format: organism-based; settings: in vivo
[19] = Toxicity against Aphidius colemani assessed as mortality at 100 mg/l, po after 24 hr; format: organism-based; settings: in vivo
[20] = Toxicity against Aphidius colemani in cucumber leaf assessed as mortality at 100 mg/l treated as spraying after 24 hr relative to control; format: organism-based; settings: in vivo, other: spraying
[21] = Toxicity against Aphidius colemani in cucumber leaf assessed as mortality at 5 mg/l treated as spraying after 24 hr relative to control; format: organism-based; settings: in vivo, other: spraying
[22] = test system: Leaf; assay: Drug level in Phaseolus vulgaris (kidney bean) leaf assessed as deposition in leaf at 0.8 mg/l; format: ADME
[23] = Residual toxicity against Aphidius colemani in strawberry leaf assessed as mortality at 50 mg/l leaves collected after 20 days of application measured after 48 hr relative to control; format: organism-based; settings: in vivo
[24] = Toxicity against Aphidius colemani in kidney bean leaf assessed as mortality at 100 mg/l treated as spraying after 48 hr relative to control; format: organism-based; settings: in vivo, other: spraying
[25] = test system: Leaf; assay: Drug level in Fragaria x ananassa (strawberry) leaf assessed as deposition in leaf at 5 mg/l; format: ADME
[26] = Drug level in Fragaria x ananassa (strawberry) leaf at 50 mg/l leaves after 20 days; format: ADME; settings: read-out: Drug uptake
[27] = Toxicity against Aphidius colemani in kidney bean leaf assessed as mortality at 83.3 mg/l treated as spraying after 48 hr relative to control; format: organism-based; settings: in vivo, other: spraying
[28] = test system: Leaf; assay: Drug level in Fragaria x ananassa (strawberry) leaf assessed as deposition in leaf at 100 mg/l; format: ADME
[29] = Residual toxicity against Aphidius colemani in strawberry leaf assessed as mortality at 50 mg/l leaves collected after 40 days of application measured after 24 hr relative to control; format: organism-based; settings: in vivo
[30] = Toxicity against Aphidius colemani in cucumber leaf assessed as mortality at 5 mg/l treated as spraying after 48 hr relative to control; format: organism-based; settings: in vivo
[31] = Contact toxicity against Aphidius colemani assessed as mortality at 100 mg/l after 24 hr relative to control; format: organism-based; settings: in vivo, other: contact
[32] = Toxicity against Aphidius colemani in strawberry leaf assessed as mortality at 1 mg/l treated as spraying after 24 hr relative to control; format: organism-based; settings: in vivo, other: spraying
[33] = Residual toxicity against Aphidius colemani in strawberry leaf assessed as mortality at 50 mg/l leaves collected after 5 days of application measured after 48 hr relative to control; format: organism-based; settings: in vivo
[34] = Residual toxicity against Aphidius colemani in strawberry leaf assessed as mortality at 50 mg/l leaves collected after 10 days of application measured after 48 hr relative to control; format: organism-based; settings: in vivo
[35] = Residual toxicity against Aphidius colemani in strawberry leaf assessed as mortality at 50 mg/l leaves collected after 30 days of application measured after 24 hr relative to control; format: organism-based; settings: in vivo
[36] = Toxicity against Aphidius colemani in cucumber leaf assessed as mortality at 20 mg/l treated as spraying after 24 hr relative to control; format: organism-based; settings: in vivo, other: spraying
[37] = test system: Leaf; assay: Drug level in Phaseolus vulgaris (kidney bean) leaf assessed as deposition in leaf at 1 mg/l; format: ADME
[38] = Toxicity against Aphidius colemani in kidney bean leaf assessed as mortality at 5 mg/l treated as spraying after 48 hr relative to control; format: organism-based; settings: in vivo
[39] = test system: Leaf; assay: Drug level in Phaseolus vulgaris (kidney bean) leaf assessed as deposition in leaf at 8.3 mg/l; format: ADME
[40] = Toxicity against Aphidius colemani assessed as mortality at 100 mg/l, po after 24 hr relative to control; format: organism-based; settings: in vivo
[41] = test system: Leaf; assay: Drug level in Phaseolus vulgaris (kidney bean) leaf assessed as deposition in leaf at 5 mg/l; format: ADME
[42] = Drug level in Fragaria x ananassa (strawberry) leaf at 50 mg/l leaves after 30 days; format: ADME; settings: read-out: Drug uptake
[43] = Toxicity against Aphidius colemani in cucumber leaf assessed as mortality at 20 mg/l treated as spraying after 48 hr relative to control; format: organism-based; settings: in vivo
[44] = test system: Leaf; assay: Drug level in Cucumis sativus (cucumber) leaf assessed as deposition in leaf at 20 mg/l; format: ADME
[45] = Toxicity against Aphidius colemani in kidney bean leaf assessed as mortality at 83.3 mg/l treated as spraying after 24 hr relative to control; format: organism-based; settings: in vivo, other: spraying
[46] = Toxicity against Aphidius colemani in strawberry leaf assessed as mortality at 100 mg/l treated as spraying after 24 hr relative to control; format: organism-based; settings: in vivo
[47] = Drug level in Fragaria x ananassa (strawberry) leaf at 50 mg/l leaves after 40 days; format: ADME; settings: read-out: Drug uptake
[48] = Toxicity against Aphidius colemani in cucumber leaf assessed as mortality at 10 mg/l treated as spraying after 48 hr relative to control; format: organism-based; settings: in vivo, other: spraying
[49] = test system: Leaf; assay: Drug level in Cucumis sativus (cucumber) leaf assessed as deposition in leaf at 100 mg/l; format: ADME
[50] = Toxicity against Aphidius colemani in kidney bean leaf assessed as mortality at 8.3 mg/l treated as spraying after 24 hr relative to control; format: organism-based; settings: in vivo
[51] = test system: Leaf; assay: Drug level in Fragaria x ananassa (strawberry) leaf assessed as deposition in leaf at 1 mg/l; format: ADME
[52] = Toxicity against Aphidius colemani in cucumber leaf assessed as mortality at 100 mg/l treated as spraying after 48 hr relative to control; format: organism-based; settings: in vivo
[53] = Toxicity against Aphidius colemani in strawberry leaf assessed as mortality at 5 mg/l treated as spraying after 24 hr relative to control; format: organism-based; settings: in vivo, other: spraying
[54] = Contact toxicity against Aphidius colemani assessed as mortality at 100 mg/l after 24 hr; format: organism-based; settings: in vivo, other: contact
[55] = Drug level in Fragaria x ananassa (strawberry) leaf at 50 mg/l leaves after 10 days; format: ADME; settings: read-out: Drug uptake
[56] = test system: Leaf; assay: Drug level in Cucumis sativus (cucumber) leaf assessed as deposition in leaf at 5 mg/l; format: ADME
[57] = Toxicity against Aphidius colemani in kidney bean leaf assessed as mortality at 5 mg/l treated as spraying after 24 hr relative to control; format: organism-based; settings: in vivo
[58] = Toxicity against Aphidius colemani in strawberry leaf assessed as mortality at 1 mg/l treated as spraying after 48 hr relative to control; format: organism-based; settings: in vivo, other: spraying
[59] = Toxicity against Aphidius colemani in kidney bean leaf assessed as mortality at 8.3 mg/l treated as spraying after 48 hr relative to control; format: organism-based; settings: in vivo
[60] = Contact toxicity against Aphidius colemani assessed as mortality at 400 mg/l after 24 hr; format: organism-based; settings: in vivo, other: contact
[61] = Toxicity against Aphidius colemani assessed as mortality at 400 mg/l, po after 24 hr; format: organism-based; settings: in vivo
[62] = test system: Aphidius colemani; assay: Drug uptake in Aphidius colemani at 400 mg/l treated as spraying; format: ADME, organism-based; settings: in vivo, topical_or_ocular
[63] = Contact toxicity against Aphidius colemani assessed as mortality at 400 mg/l after 24 hr relative to control; format: organism-based; settings: in vivo, other: contact
[64] = Toxicity against Aphidius colemani assessed as mortality at 400 mg/l, po after 24 hr relative to control; format: organism-based; settings: in vivo
[65] = test system: Aphidius colemani; assay: Drug uptake in Aphidius colemani at 400 mg/l treated as dipping; format: ADME, organism-based; settings: in vivo, topical_or_ocular

## CC[C@H]1CCC[C@H](O[C@H]2CC[C@H](N(C)C)[C@@H](C)O2)[C@@H](C)C(=O)C2=C[C@@H]3[C@@H](C=C(C)[C@@H]4C[C@@H](O[C@@H]5O[C@@H](C)[C@H](OC)[C@@H](OC)[C@H]5OC)C[C@@H]34)[C@@H]2CC(=O)O1.CC[C@H]1CCC[C@H](O[C@H]2CC[C@H](N(C)C)[C@@H](C)O2)[C@@H](C)C(=O)C2=C[C@@H]3[C@@H](C=C[C@@H]4C[C@@H](O[C@@H]5O[C@@H](C)[C@H](OC)[C@@H](OC)[C@H]5OC)C[C@@H]34)[C@@H]2CC(=O)O1
[1]
  mortality at 48 h: 8.9%
[2]
  mortality at 24 h: 0%
[3]
  Drug uptake: 3.63 ng
[4]
  mortality at 24 h: 0%
[5]
  mortality at 48 h: 0%
[6]
  mortality at 24 h: 62%
[7]
  Drug uptake: 2.108%
[8]
  concentration at 120 h: 38800 ng/g
[9]
  Drug uptake: 0.044%
[10]
  mortality at 24 h: 3.3%
[11]
  mortality at 24 h: 90%
[12]
  mortality at 48 h: 0%
[13]
  mortality at 24 h: 27.7%
[14]
  Drug uptake: 2.37%
[15]
  mortality at 48 h: 17.2%
[16]
  mortality at 48 h: 100%
[17]
  mortality at 48 h: 21.4%
[18]
  mortality at 24 h: 74.4%
[19]
  mortality at 24 h: 93.3%
[20]
  mortality at 24 h: 100%
[21]
  mortality at 24 h: 3.3%
[22]
  Drug uptake: 0.023%
[23]
  mortality at 48 h: 55.9%
[24]
  mortality at 48 h: 97.8%
[25]
  Drug uptake: 0.022%
[26]
  concentration at 480 h: 23000 ng/g
[27]
  mortality at 48 h: 100%
[28]
  Drug uptake: 1.145%
[29]
  mortality at 24 h: 4%
[30]
  mortality at 48 h: 0%
[31]
  mortality at 24 h: 100%
[32]
  mortality at 24 h: 0%
[33]
  mortality at 48 h: 95.1%
[34]
  mortality at 48 h: 93.6%
[35]
  mortality at 24 h: 4.3%
[36]
  mortality at 24 h: 48.3%
[37]
  Drug uptake: 0.004%
[38]
  mortality at 48 h: 0%
[39]
  Drug uptake: 0.219%
[40]
  mortality at 24 h: 91.3%
[41]
  Drug uptake: 0.025%
[42]
  concentration at 720 h: 11400 ng/g
[43]
  mortality at 48 h: 86.7%
[44]
  Drug uptake: 0.177%
[45]
  mortality at 24 h: 96.9%
[46]
  mortality at 24 h: 95.8%
[47]
  concentration at 960 h: 9200 ng/g
[48]
  mortality at 48 h: 10%
[49]
  Drug uptake: 0.93%
[50]
  mortality at 24 h: 90%
[51]
  Drug uptake: 0.003%
[52]
  mortality at 48 h: 100%
[53]
  mortality at 24 h: 3.3%
[54]
  mortality at 24 h: 100%
[55]
  concentration at 240 h: 28800 ng/g
[56]
  Drug uptake: 0.022%
[57]
  mortality at 24 h: 4%
[58]
  mortality at 48 h: 0%
[59]
  mortality at 48 h: 98.2%

## N#Cc1c(Cl)c(Cl)c(Cl)c(C#N)c1Cl [CHLOROTHALONIL]
[60]
  mortality at 24 h: 30%
[61]
  mortality at 24 h: 0%
[62]
  Drug uptake: 25.1 ng
[63]
  mortality at 24 h: 8.7%
[64]
  mortality at 24 h: 0%
[65]
  Drug uptake: 5.5 ng
